Among the data in ChEMBL document CHEMBL2074485, “Identification of thyroid hormone transporters in humans: different molecules are involved in a tissue-specific manner” (Endocrinology, 2001) are Activity and Km values, retold here.

Data set [1] has as its target T1, Solute carrier organic anion transporter family member 4A1 (Homo sapiens, UniProt Q96BD0).
T1 sequence (Q96BD0 whole entry): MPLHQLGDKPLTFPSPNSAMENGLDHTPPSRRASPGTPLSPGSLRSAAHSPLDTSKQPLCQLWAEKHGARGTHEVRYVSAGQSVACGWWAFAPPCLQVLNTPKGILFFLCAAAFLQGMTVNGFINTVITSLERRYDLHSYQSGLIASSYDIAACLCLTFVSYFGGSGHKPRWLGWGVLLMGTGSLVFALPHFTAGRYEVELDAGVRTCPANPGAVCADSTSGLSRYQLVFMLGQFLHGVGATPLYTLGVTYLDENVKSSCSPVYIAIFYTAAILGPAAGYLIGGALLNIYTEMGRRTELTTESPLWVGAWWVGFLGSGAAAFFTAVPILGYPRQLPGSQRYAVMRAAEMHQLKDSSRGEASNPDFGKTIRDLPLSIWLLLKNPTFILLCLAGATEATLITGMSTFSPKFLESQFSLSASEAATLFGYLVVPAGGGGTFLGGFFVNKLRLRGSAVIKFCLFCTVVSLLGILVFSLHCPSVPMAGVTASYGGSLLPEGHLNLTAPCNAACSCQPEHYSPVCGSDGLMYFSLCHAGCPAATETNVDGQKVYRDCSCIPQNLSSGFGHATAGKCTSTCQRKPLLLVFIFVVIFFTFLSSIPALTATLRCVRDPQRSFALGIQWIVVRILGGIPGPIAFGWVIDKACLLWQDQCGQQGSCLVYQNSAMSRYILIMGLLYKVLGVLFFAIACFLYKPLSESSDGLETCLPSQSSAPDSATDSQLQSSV
The data set can be described thus: TP_TRANSPORTER: inhibition of T3 uptake (T3: 1 uM, T4: 100 uM) in Xenopus laevis oocytes. The format is functional, cell-based. Conditions: oocyte.

Data set [2] concerns the target T1, Solute carrier organic anion transporter family member 4A1. The experiment in a line: (§1) TP_TRANSPORTER: uptake in Xenopus laevis oocytes. The format is functional, cell-based. Conditions: oocyte.
In data set [3] the target is T2, Solute carrier organic anion transporter family member 1A2 (OATP1A2, SLCO1A2) (Homo sapiens, UniProt P46721).
T2 sequence (P46721 whole entry): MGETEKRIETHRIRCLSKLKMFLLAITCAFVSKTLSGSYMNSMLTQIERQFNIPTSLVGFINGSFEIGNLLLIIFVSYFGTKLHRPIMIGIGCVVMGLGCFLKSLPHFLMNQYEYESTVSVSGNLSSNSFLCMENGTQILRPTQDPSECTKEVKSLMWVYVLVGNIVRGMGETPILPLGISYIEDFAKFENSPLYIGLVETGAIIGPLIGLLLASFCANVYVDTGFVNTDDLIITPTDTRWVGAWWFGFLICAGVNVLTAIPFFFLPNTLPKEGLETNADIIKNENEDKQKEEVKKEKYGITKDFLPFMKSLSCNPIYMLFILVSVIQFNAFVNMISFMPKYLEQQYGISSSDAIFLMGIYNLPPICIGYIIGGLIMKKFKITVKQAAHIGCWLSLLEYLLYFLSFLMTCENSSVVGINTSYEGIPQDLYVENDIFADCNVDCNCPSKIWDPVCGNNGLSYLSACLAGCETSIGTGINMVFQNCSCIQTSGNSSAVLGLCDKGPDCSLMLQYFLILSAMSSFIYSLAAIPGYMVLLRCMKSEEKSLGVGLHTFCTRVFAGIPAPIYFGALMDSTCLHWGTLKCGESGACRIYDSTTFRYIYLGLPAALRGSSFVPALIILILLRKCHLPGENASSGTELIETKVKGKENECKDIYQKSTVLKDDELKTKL
The description is as §1. Conditions: Xenopus laevis oocytes expressing the transporter.

For data set [4], the target named is T1, Solute carrier organic anion transporter family member 4A1. The data set can be described thus: TP_TRANSPORTER: inhibition of Taurocholate uptake (Taurochorate: 5 uM, BSP: 50 uM) in Xenopus laevis oocytes. Format: functional, cell-based. To be noted: oocyte.
For data set [5] the target is unchanged. The experiment in a line: TP_TRANSPORTER: inhibition of Taurocholate uptake (Taurochorate: 5 uM, T3: 50 uM) in Xenopus laevis oocytes. The format is functional, cell-based. To be noted: oocyte.
Substrate in data set [6]: N[C@@H](Cc1cc(I)c(Oc2ccc(O)c(I)c2)c(I)c1)C(=O)O
The data set is described as §1. The format is functional, cell-based, Oocyte.

`N[C@@H](Cc1cc(I)c(Oc2cc(I)c(O)c(I)c2)c(I)c1)C(=O)O` [LEVOTHYROXINE]: the values for the Activity entry in data set [1] and in data set [2] were “inhibitor [(at a rough estimate) 15 % of control]” and “substrate [+]”, respectively. In data set [3], the Km amounted to 8 µM.

Consider `O=C1OC(c2ccc(O)c(S(=O)(=O)[O-])c2)(c2ccc(O)c(S(=O)(=O)[O-])c2)c2c(Br)c(Br)c(Br)c(Br)c21.[Na+].[Na+]` [SULFOBROMOPHTHALEIN SODIUM], for which, in data set [4], the Activity result was “inhibitor [(at a rough estimate) 15 % of control]”. Turning to `N[C@@H](Cc1ccc(Oc2cc(I)c(O)c(I)c2)c(I)c1)C(=O)O` [REVERSE TRIIODOTHYRONINE], in data set [2], the Activity result is “substrate [+]”. As for `N[C@@H](Cc1cc(I)c(Oc2ccc(O)c(I)c2)c(I)c1)C(=O)O` [LIOTHYRONINE], the Activity entry in data set [5] was “inhibitor [(at a rough estimate) 30 % of control]”.

B1: Solute carrier organic anion transporter family member 4A1 (Homo sapiens) (protein)
chain: T1 sequence (Q96BD0 whole entry)
Turning to B1, the Km in data set [6] worked out at 0.9 µM.
